How the values were obtained:
Streptococcus pneumoniae [1] = experiment: Antimicrobial activity against penicillin-susceptible Streptococcus pneumoniae clinical isolates by broth microdilution method; format: functional
Streptococcus pyogenes [2] = experiment: Antimicrobial activity against erythromycin-nonsusceptible Streptococcus pyogenes clinical isolates by broth microdilution method; format: functional
Streptococcus pneumoniae [3] = experiment: Antimicrobial activity against penicillin-resistant Streptococcus pneumoniae clinical isolates by broth microdilution method; format: functional
[4] = Antimicrobial activity against erythromycin-susceptible Streptococcus Group C clinical isolates by broth microdilution method; format: functional; conditions: Streptococcus sp. 'group C'
Streptococcus agalactiae [5] = experiment: Antimicrobial activity against erythromycin-susceptible Streptococcus agalactiae clinical isolates assessed as percent susceptible isolates by broth microdilution method; format: functional
Streptococcus [6] = experiment: Antimicrobial activity against erythromycin-susceptible Streptococcus Group F clinical isolates by broth microdilution method; format: functional
Streptococcus agalactiae [7] = experiment: Antimicrobial activity against erythromycin-nonsusceptible Streptococcus agalactiae clinical isolates by broth microdilution method; format: functional
Streptococcus pyogenes [8] = experiment: Antimicrobial activity against Streptococcus pyogenes clinical isolates assessed as percent susceptible isolates by broth microdilution method; format: functional
Enterococcus faecalis [9] = experiment: Antimicrobial activity against vancomycin-susceptible Enterococcus faecalis clinical isolates assessed as resistant isolates by broth microdilution method; format: functional
Streptococcus agalactiae [10] = experiment: Antimicrobial activity against erythromycin-susceptible Streptococcus agalactiae clinical isolates assessed as resistant isolates by broth microdilution method; format: functional
Streptococcus pneumoniae [11] = experiment: Antimicrobial activity against Streptococcus pneumoniae clinical isolates by broth microdilution method; format: functional
Streptococcus pneumoniae [12] = experiment: Antimicrobial activity against penicillin-resistant Streptococcus pneumoniae clinical isolates assessed as percent susceptible isolates by broth microdilution method; format: functional
Streptococcus pneumoniae [13] = experiment: Antimicrobial activity against penicillin-intermediate Streptococcus pneumoniae clinical isolates by broth microdilution method; format: functional
Streptococcus pyogenes [14] = experiment: Antimicrobial activity against erythromycin-susceptible Streptococcus pyogenes clinical isolates by broth microdilution method; format: functional
Streptococcus agalactiae [15] = experiment: Antimicrobial activity against Streptococcus agalactiae clinical isolates by broth microdilution method; format: functional
[16] = Antimicrobial activity against erythromycin-susceptible Streptococcus Group C clinical isolates assessed as resistant isolates by broth microdilution method; format: functional, Streptococcus sp. 'group C'
Enterococcus faecium = experiment: Antimicrobial activity against Enterococcus faecium clinical isolates by broth microdilution method; format: functional
Enterococcus faecalis [17] = experiment: Antimicrobial activity against vancomycin-nonsusceptible Enterococcus faecalis clinical isolates assessed as resistant isolates by broth microdilution method; format: functional
[18] = Antimicrobial activity against erythromycin-susceptible Streptococcus Group G clinical isolates by broth microdilution method; format: functional; conditions: Streptococcus sp. 'group G'
Streptococcus pyogenes [19] = experiment: Antimicrobial activity against Streptococcus pyogenes clinical isolates assessed as resistant isolates by broth microdilution method; format: functional
[20] = Antimicrobial activity against erythromycin-susceptible Streptococcus Group G clinical isolates assessed as percent susceptible isolates by broth microdilution method; format: functional, Streptococcus sp. 'group G'
[21] = Antimicrobial activity against Streptococcus Group G clinical isolates by broth microdilution method; format: functional; conditions: Streptococcus sp. 'group G'
[22] = Antimicrobial activity against erythromycin-susceptible Streptococcus Group C clinical isolates assessed as percent susceptible isolates by broth microdilution method; format: functional, Streptococcus sp. 'group C'
Streptococcus [23] = experiment: Antimicrobial activity against Streptococcus Group F clinical isolates by broth microdilution method; format: functional
Streptococcus pyogenes [24] = experiment: Antimicrobial activity against Streptococcus pyogenes clinical isolates by broth microdilution method; format: functional
[25] = Antimicrobial activity against erythromycin-nonsusceptible Streptococcus Group C clinical isolates by broth microdilution method; format: functional; conditions: Streptococcus sp. 'group C'
Enterococcus faecalis [26] = experiment: Antimicrobial activity against Enterococcus faecalis expressing VanB gene clinical isolates assessed as resistant isolates by broth microdilution method; format: functional
Streptococcus pneumoniae [27] = experiment: Antimicrobial activity against penicillin-intermediate Streptococcus pneumoniae clinical isolates assessed as resistant isolates by broth microdilution method; format: functional
[28] = Antimicrobial activity against erythromycin-nonsusceptible Streptococcus Group G clinical isolates assessed as resistant isolates by broth microdilution method; format: functional, Streptococcus sp. 'group G'
Streptococcus agalactiae [29] = experiment: Antimicrobial activity against erythromycin-nonsusceptible Streptococcus agalactiae clinical isolates assessed as resistant isolates by broth microdilution method; format: functional
[30] = Antimicrobial activity against erythromycin-susceptible Streptococcus Group G clinical isolates assessed as resistant isolates by broth microdilution method; format: functional, Streptococcus sp. 'group G'
Streptococcus pneumoniae [31] = experiment: Antimicrobial activity against penicillin-intermediate Streptococcus pneumoniae clinical isolates assessed as percent susceptible isolates by broth microdilution method; format: functional
[32] = Antimicrobial activity against Streptococcus Group C clinical isolates by broth microdilution method; format: functional; conditions: Streptococcus sp. 'group C'
Enterococcus faecalis [33] = experiment: Antimicrobial activity against Enterococcus faecalis expressing VanA gene clinical isolates assessed as percent susceptible isolates by broth microdilution method; format: functional
Streptococcus pneumoniae [34] = experiment: Antimicrobial activity against penicillin-resistant Streptococcus pneumoniae clinical isolates assessed as resistant isolates by broth microdilution method; format: functional
Streptococcus pyogenes [35] = experiment: Antimicrobial activity against erythromycin-nonsusceptible Streptococcus pyogenes clinical isolates assessed as percent susceptible isolates by broth microdilution method; format: functional
Streptococcus agalactiae [36] = experiment: Antimicrobial activity against erythromycin-susceptible Streptococcus agalactiae clinical isolates by broth microdilution method; format: functional
[37] = Antimicrobial activity against erythromycin-nonsusceptible Streptococcus Group G clinical isolates by broth microdilution method; format: functional; conditions: Streptococcus sp. 'group G'
Streptococcus agalactiae [38] = experiment: Antimicrobial activity against Streptococcus agalactiae clinical isolates assessed as resistant isolates by broth microdilution method; format: functional
Streptococcus pneumoniae [39] = experiment: Antimicrobial activity against penicillin-susceptible Streptococcus pneumoniae clinical isolates assessed as percent susceptible isolates by broth microdilution method; format: functional
Streptococcus pneumoniae [40] = experiment: Antimicrobial activity against Streptococcus pneumoniae clinical isolates assessed as percent susceptible isolates by broth microdilution method; format: functional
Streptococcus agalactiae [41] = experiment: Antimicrobial activity against Streptococcus agalactiae clinical isolates assessed as percent susceptible isolates by broth microdilution method; format: functional
Enterococcus faecalis [42] = experiment: Antimicrobial activity against Enterococcus faecalis expressing VanA gene clinical isolates assessed as resistant isolates by broth microdilution method; format: functional
Streptococcus [43] = experiment: Antimicrobial activity against erythromycin-nonsusceptible Streptococcus Group F clinical isolates by broth microdilution method; format: functional
Streptococcus pyogenes [44] = experiment: Antimicrobial activity against erythromycin-susceptible Streptococcus pyogenes clinical isolates assessed as percent susceptible isolates by broth microdilution method; format: functional
Streptococcus agalactiae [45] = experiment: Antimicrobial activity against erythromycin-nonsusceptible Streptococcus agalactiae clinical isolates assessed as percent susceptible isolates by broth microdilution method; format: functional

C[C@H]1COc2c(N3CCN(C)CC3)c(F)cc3c(=O)c(C(=O)O)cn1c23.C[C@H]1COc2c(N3CCN(C)CC3)c(F)cc3c(=O)c(C(=O)O)cn1c23.O [LEVOFLOXACIN]
MIC90 (Streptococcus pneumoniae [1]): 1 µg/mL | MIC90 (Streptococcus pyogenes [2]): 1 µg/mL | MIC90 (Streptococcus pneumoniae [3]): 1 µg/mL | MIC90 [4]: 0.5 µg/mL | Activity (Streptococcus agalactiae [5]): 98.6% | MIC90 (Streptococcus [6]): 0.5 µg/mL | MIC90 (Streptococcus agalactiae [7]): 1 µg/mL | Activity (Streptococcus pyogenes [8]): 99.9% | Activity (Enterococcus faecalis [9]): 35.2% | Activity (Streptococcus agalactiae [10]): 1.4% | MIC90 (Streptococcus pneumoniae [11]): 1 µg/mL | Activity (Streptococcus pneumoniae [12]): 99.3% | MIC90 (Streptococcus pneumoniae [13]): 1 µg/mL | MIC90 (Streptococcus pyogenes [14]): 0.5 µg/mL | MIC90 (Streptococcus agalactiae [15]): 1 µg/mL | Activity [16]: 0% | MIC90 (Enterococcus faecium): > 16 µg/mL | Activity (Enterococcus faecalis [17]): 100% | MIC90 [18]: 0.5 µg/mL | Activity (Streptococcus pyogenes [19]): 0.1% | Activity [20]: 100% | MIC90 [21]: 0.5 µg/mL | Activity [22]: 100% | MIC90 (Streptococcus [23]): 0.5 µg/mL | MIC90 (Streptococcus pyogenes [24]): 0.5 µg/mL | MIC90 [25]: 0.5 µg/mL | Activity (Enterococcus faecalis [26]): 100% | Percent of isolates resistant (Streptococcus pneumoniae [27]): 2.3% | Activity [28]: 0% | Activity (Streptococcus agalactiae [29]): 4.1% | Activity [30]: 0% | Activity (Streptococcus pneumoniae [31]): 97.7% | MIC90 [32]: 0.5 µg/mL | Activity (Enterococcus faecalis [33]): 0% | Percent of isolates resistant (Streptococcus pneumoniae [34]): 0.7% | Activity (Streptococcus pyogenes [35]): 99.2% | MIC90 (Streptococcus agalactiae [36]): 1 µg/mL | MIC90 [37]: 0.5 µg/mL | Activity (Streptococcus agalactiae [38]): 2.2% | Activity (Streptococcus pneumoniae [39]): 99.5% | Activity (Streptococcus pneumoniae [40]): 99.1% | Activity (Streptococcus agalactiae [41]): 97.8% | Activity (Enterococcus faecalis [42]): 100% | MIC90 (Streptococcus [43]): 0.5 µg/mL | Activity (Streptococcus pyogenes [44]): 100% | Activity (Streptococcus agalactiae [45]): 95.9%
